pIC50: −log10 of the molar value.
Each compound was assayed against T1, CYP2C9 (Homo sapiens, UniProt P11712) (assay: CYP inhibitory test using human liver microsome). Conditions: model substrate diclofenac, 37° C. 10 min, read-out: CYP2C9 inhibition IC50.
T1 construct: Human liver microsome (20 mg protein/mL, 5 μL, Xenotech LLC, purchased from Lenexa KS); tissue Xenotech LLC; host or cells: human liver microsome
Type: in vitro ADME
Protocol: Human liver microsome (20 mg protein/mL, 5 μL, Xenotech LLC, purchased from Lenexa KS) was suspended in 100 mM potassium phosphate buffer (70 μL, pH 7.4), mixed with a solution (0.5 μL) of the Example compound dissolved in DMSO and preincubated at 37° C. for 5 min. NADPH producing system coenzyme solution (β-nicotinamide adenine dinucleotide phosphate: 5.2 mM, D-glucose-6-phosphate: 13.2 mM, magnesium chloride: 13.2 mM, glucose-6-phosphate dehydrogenase: 1.8 U/mL) 25 μL, and a model substrate (CYP3A4: midazolam 1 mM, CYP2D6: bufuralol 1 mM, CYP2C9: diclofenac 2 mM) 0.5 μL dissolved in DMSO were added to start the reaction. After incubation at 37° C. for 10 min., acetonitrile (200 μL) containing an internal standard substance (propranolol 1 μM) was added and the mixture was centrifuged (room temperature, 3000 rpm, 20 min). The amount of the metabolite produced from each model substrate in the supernatant was measured by high performance liquid chromatography/mass spectrometry (LC/MS/MS) and each CYP enzyme activity was determined. The concentration showing 50% inhibition (IC50) was calculated relative to the enzyme activity without addition of Example compound (DMSO 0.5 μL added) as 100%.

T1 sequence (P11712 whole entry): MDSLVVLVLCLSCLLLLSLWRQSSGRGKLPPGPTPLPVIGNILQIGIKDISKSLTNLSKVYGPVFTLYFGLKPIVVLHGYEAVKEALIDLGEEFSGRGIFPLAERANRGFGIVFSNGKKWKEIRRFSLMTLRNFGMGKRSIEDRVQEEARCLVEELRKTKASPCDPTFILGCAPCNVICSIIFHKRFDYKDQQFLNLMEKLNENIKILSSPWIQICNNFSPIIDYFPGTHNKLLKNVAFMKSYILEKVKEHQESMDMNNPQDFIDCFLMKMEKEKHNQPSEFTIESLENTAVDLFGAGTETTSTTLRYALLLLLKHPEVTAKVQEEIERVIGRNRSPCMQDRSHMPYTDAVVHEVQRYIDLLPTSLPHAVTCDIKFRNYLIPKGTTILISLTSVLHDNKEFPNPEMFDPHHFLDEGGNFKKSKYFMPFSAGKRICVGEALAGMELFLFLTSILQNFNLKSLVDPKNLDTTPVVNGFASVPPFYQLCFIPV

Going from O=C(O)c1ccc2c(c1)OCCN2C(=O)c1cc(Cl)c(O)c(Cl)c1 [Example 60, 4-(3,5-dichloro-4-hydroxybenzoyl)-3,4-dihydro-2H-benzo[1,4]oxazine-7-carboxylic acid] to O=C(c1cc(Cl)c(O)c(Cl)c1)N1CCOc2cc(O)ccc21 [Example 20, (3,5-dichloro-4-hydroxyphenyl)-(7-hydroxy-2,3-dihydrobenzo[1,4]oxazin-4-yl)-methanone], the pIC50 rises from < 4.30 to 4.89. The second is the more potent here.

Compared with O=C(c1ccc(O)cc1)N1CCOc2ccccc21 [Example 88, (2,3-dihydrobenzo[1,4]oxazin-4-yl)-(4-hydroxyphenyl)-methanone], O=C(c1ccc(O)c(Br)c1)N1CCOc2ccccc21 [Example 2, (3-bromo-4-hydroxyphenyl)-(2,3-dihydrobenzo[1,4]oxazin-4-yl)-methanone] is higher in pIC50: < 4.30 for the first, 4.43 for the second. The second is the more potent here.

Going from CS(=O)(=O)N1CCN(C(=O)c2cc(Cl)c(O)c(Cl)c2)c2ccccc21 [Example 83, (3,5-dichloro-4-hydroxyphenyl)-(4-methanesulfonyl-3,4-dihydro-2H-quinoxalin-1-yl)-methanone] to CN1CCN(C(=O)c2cc(Cl)c(O)c(Cl)c2)c2ccccc21 [Example 74, (3,5-dichloro-4-hydroxyphenyl)-(4-methyl-3,4-dihydro-2H-quinoxalin-1-yl)-methanone], the pIC50 rises from < 4.30 to 4.48. The second is the more potent here.

Compared with O=C(c1cc(Cl)c(O)c(Cl)c1)N1CCOc2ccc(-c3ccccc3)cc21 [Example 65, (3,5-dichloro-4-hydroxyphenyl)-(6-phenyl-2,3-dihydrobenzo[1,4]oxazin-4-yl)-methanone], O=C(c1cc(Cl)c(O)c(Cl)c1)N1CCCOc2ccccc21 [Example 95, (3,5-dichloro-4-hydroxyphenyl)-(7,8-dihydro-6H-5-oxa-9-azabenzocyclohepten-9-yl)-methanone] is lower in pIC50: 4.85 for the first, < 4.30 for the second. The first is the more potent here.

CCN(CC)S(=O)(=O)c1ccc2c(c1)N(C(=O)c1cc(Cl)c(O)c(Cl)c1)CCO2 [Example 21, 4-(3,5-dichloro-4-hydroxybenzoyl)-3,4-dihydro-2H-benzo[1,4]oxazine-6-sulfonic acid diethylamide] and CCS(=O)(=O)c1ccc2c(c1)N(C(=O)c1cc(Cl)c(O)c(Cl)c1)CCO2 [Example 84, (3,5-dichloro-4-hydroxyphenyl)-(6-ethanesulfonyl-2,3-dihydrobenzo[1,4]oxazin-4-yl)-methanone] are within 0.2 log units of each other in pIC50: 4.77 for the first, 4.82 for the second.

Cc1ccc2c(c1)N(C(=O)c1cc(Br)c(O)c(Br)c1)CCO2 [Example 81, (3,5-dibromo-4-hydroxyphenyl)-(6-methyl-2,3-dihydrobenzo[1,4]oxazin-4-yl)-methanone] and O=C(c1cc(Br)c(O)c(Br)c1)N1CCOc2ccc(Cl)cc21 [Example 82, (6-chloro-2,3-dihydrobenzo[1,4]oxazin-4-yl)-(3,5-dibromo-4-hydroxyphenyl)-methanone] are within 0.2 log units of each other in pIC50: 4.89 for the first, 4.96 for the second.

O=C(c1cc(Cl)c(O)c(Cl)c1)N1CCOc2ccc(C(F)(F)F)cc21 [Example 85, (3,5-dichloro-4-hydroxyphenyl)-(6-trifluoromethyl-2,3-dihydrobenzo[1,4]oxazin-4-yl)-methanone] and CC(C)(C)c1ccc2c(c1)N(C(=O)c1cc(Cl)c(O)c(Cl)c1)CCO2 [Example 23, (6-tert-butyl-2,3-dihydrobenzo[1,4]oxazin-4-yl)-(3,5-dichloro-4-hydroxyphenyl)-methanone] are the same in pIC50: 4.72 for the first, 4.72 for the second.

O=C(O)c1cccc(C(=O)N2CCOc3ccccc32)c1 [Example 49, 3-(2,3-dihydrobenzo[1,4]oxazine-4-carbonyl)benzoic acid] and O=C(c1ccc(Cl)c(O)c1)N1CCOc2ccccc21 [Example 41, (4-chloro-3-hydroxyphenyl)-(2,3-dihydrobenzo[1,4]oxazin-4-yl)-methanone] cannot be ordered by pIC50: < 4.30 for the first, < 4.30 for the second.

Compared with O=C(c1cc(Cl)c(O)c(Cl)c1)N1CCN(C(=O)c2cc(Cl)c(O)c(Cl)c2)c2ccccc21 [Example 53, [4-(3,5-dichloro-4-hydroxybenzoyl)-3,4-dihydro-2H-quinoxalin-1-yl]-(3,5-dichloro-4-hydroxyphenyl)-methanone], O=C(c1cc(Cl)c(O)c(Cl)c1)N1CCCc2ccccc21 [Example 26, (3,5-dichloro-4-hydroxyphenyl)-(3,4-dihydro-2H-quinolin-1-yl)-methanone] is 0.33 log units lower in pIC50: 5.22 for the first, 4.89 for the second. The first is the more potent here.

Compared with O=C(c1cc(Cl)c(O)c(Cl)c1)N1CCOc2cc(Cl)ccc21 [Example 52, (7-chloro-2,3-dihydrobenzo[1,4]oxazin-4-yl)-(3,5-dichloro-4-hydroxyphenyl)-methanone], Cc1ccc2c(c1)OCCN2C(=O)c1cc(Cl)c(O)c(Cl)c1 [Example 13, (3,5-dichloro-4-hydroxyphenyl)-(7-methyl-2,3-dihydrobenzo[1,4]oxazin-4-yl)-methanone] is 0.22 log units lower in pIC50: 4.96 for the first, 4.74 for the second.

COc1c(Cl)cc(C(=O)N2CCOc3ccccc32)cc1Cl [Example 86, (3,5-dichloro-4-methoxyphenyl)-(2,3-dihydrobenzo[1,4]oxazin-4-yl)-methanone] and O=C(O)COc1c(Cl)cc(C(=O)N2CCOc3ccccc32)cc1Cl [Example 92, [2,6-dichloro-4-(2,3-dihydrobenzo[1,4]oxazine-4-carbonyl)phenoxy]acetic acid] cannot be ordered by pIC50: < 4.30 for the first, < 4.30 for the second.

First: O=C(c1cc(Cl)c(O)c(Cl)c1)N1c2ccccc2Oc2ccccc21 [Example 64, (3,5-dichloro-4-hydroxyphenyl)-phenoxazin-10-ylmethanone]
Second: O=C1COc2ccccc2N1C(=O)c1cc(Cl)c(O)c(Cl)c1 [Example 24, 4-(3,5-dichloro-4-hydroxybenzoyl)-4H-benzo[1,4]oxazin-3-one]
The pIC50 of the first is higher: 5.22 for the first, < 4.30 for the second. The first is the more potent here.

First: O=C(c1cc(Cl)c(O)c(Cl)c1)N1CCCCc2ccccc21 [Example 27, (3,5-dichloro-4-hydroxyphenyl)-(2,3,4,5-tetrahydrobenzo[b]azepin-1-yl)-methanone]
Second: O=C(c1cc(Cl)c(O)c(Cl)c1)N1CCNc2ccccc21 [Example 54, (3,5-dichloro-4-hydroxyphenyl)-(3,4-dihydro-2H-quinoxalin-1-yl)-methanone]
The pIC50 of the first is 0.36 log units higher: 4.68 for the first, 4.32 for the second.

Compared with O=C(c1cc(I)c(O)c(I)c1)N1CCOc2ccccc21 [Example 5, (2,3-dihydrobenzo[1,4]oxazin-4-yl)-(4-hydroxy-3,5-diiodophenyl)-methanone], O=C(c1cc(Br)c(O)c(Br)c1)N1CCOc2ccccc21 [Example 4, (3,5-dibromo-4-hydroxyphenyl)-(2,3-dihydrobenzo[1,4]oxazin-4-yl)-methanone] is 0.65 log units lower in pIC50: 5.70 for the first, 5.05 for the second. The first is the more potent here.

CCOC(=O)COc1c(Cl)cc(C(=O)N2CCOc3ccccc32)cc1Cl [Example 91, ethyl [2,6-dichloro-4-(2,3-dihydrobenzo[1,4]oxazine-4-carbonyl)phenoxy]acetate] and COc1cc(C(=O)N2CCOc3ccccc32)cc(Cl)c1O [Example 40, (3-chloro-4-hydroxy-5-methoxyphenyl)-(2,3-dihydrobenzo[1,4]oxazin-4-yl)-methanone] cannot be ordered by pIC50: < 4.30 for the first, < 4.30 for the second.

Compared with O=C(c1cc(Cl)c(O)c(Cl)c1)N1CCOc2ccc(S(=O)(=O)N3CCCC3)cc21 [Example 33, (3,5-dichloro-4-hydroxyphenyl)-[6-(pyrrolidine-1-sulfonyl)-2,3-dihydrobenzo[1,4]oxazin-4-yl]-methanone], NS(=O)(=O)c1ccc2c(c1)N(C(=O)c1cc(Cl)c(O)c(Cl)c1)CCO2 [Example 25, 4-(3,5-dichloro-4-hydroxybenzoyl)-3,4-dihydro-2H-benzo[1,4]oxazine-6-sulfonamide] is lower in pIC50: 5.40 for the first, < 4.30 for the second. The first is the more potent here.

O=C(c1cc(Br)c(O)c(Br)c1)N1CCOc2ccc3ccccc3c21 [Example 80, (3,5-dibromo-4-hydroxyphenyl)-(2,3-dihydronaphtho[2,1-b][1,4]oxazin-1-yl)-methanone] and O=C(c1cc(Cl)cc(Cl)c1O)N1CCOc2ccccc21 [Example 38, (3,5-dichloro-2-hydroxyphenyl)-(2,3-dihydrobenzo[1,4]oxazin-4-yl)-methanone] are the same in pIC50: 5.30 for the first, 5.30 for the second.

Cc1cc(C)c2c(c1)N(C(=O)c1cc(Cl)c(O)c(Cl)c1)CCO2 [Example 66, (3,5-dichloro-4-hydroxyphenyl)-(6,8-dimethyl-2,3-dihydrobenzo[1,4]oxazin-4-yl)-methanone] and COc1ccc2c(c1)OCCN2C(=O)c1cc(Cl)c(O)c(Cl)c1 [Example 18, (3,5-dichloro-4-hydroxyphenyl)-(7-methoxy-2,3-dihydrobenzo[1,4]oxazin-4-yl)-methanone] are within 0.2 log units of each other in pIC50: 4.92 for the first, 5.05 for the second.

First: O=S(=O)(c1cc(Cl)c(O)c(Cl)c1)N1CCOc2ccccc21 [Example 22, 2,6-dichloro-4-(2,3-dihydrobenzo[1,4]oxazine-4-sulfonyl)phenol]
Second: O=C(c1cc(Cl)c(O)c(Cl)c1)N1CCSc2ccccc21 [Example 8, (3,5-dichloro-4-hydroxyphenyl)-(2,3-dihydrobenzo[1,4]thiazin-4-yl)-methanone]
The pIC50 of the first is 1.28 log units higher: 6.00 for the first, 4.72 for the second. The first is the more potent here.

O=C(c1cc(Cl)c(O)c(Cl)c1)N1CCOc2cc([N+](=O)[O-])ccc21 [Example 70, (3,5-dichloro-4-hydroxyphenyl)-(7-nitro-2,3-dihydrobenzo[1,4]oxazin-4-yl)-methanone] and COC(=O)c1cccc2c1N(C(=O)c1cc(Cl)c(O)c(Cl)c1)CCO2 [Example 58, methyl 4-(3,5-dichloro-4-hydroxybenzoyl)-3,4-dihydro-2H-benzo[1,4]oxazine-5-carboxylate] are within 0.2 log units of each other in pIC50: 4.70 for the first, 4.68 for the second.
